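Each compound was tested at five concentrations against cells in 96-well plates for 48 hours. GI50 marks 50% less growth.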 The source made the active and inactive calls. No stated cut-off is given here; in the data, active = GI50 up to about 1.1 µM and inactive = higher.
Assays:
Test in all cases: NCI-60 cell line screen, 48 h
MCF7 = test system: MCF7
MDA-MB-435 = test system: MDA-MB-435
NCI-H23 = test system: NCI-H23
SF-268 = test system: SF-268
SK-MEL-28 = test system: SK-MEL-28
HL-60 = test system: HL-60
SK-MEL-5 = test system: SK-MEL-5
Malme-3M = test system: Malme-3M
A549 = test system: A549
NCI-H522 = test system: NCI-H522
SK-MEL-2 = test system: SK-MEL-2
IGROV-1 = test system: IGROV-1
ACHN = test system: ACHN
NCI/ADR-RES = test system: NCI/ADR-RES
UACC-257 = test system: UACC-257
SNB-19 = test system: SNB-19
HCC 2998 = test system: HCC 2998
UACC-62 = test system: UACC-62
NCI-H460 = test system: NCI-H460
SK-OV-3 = test system: SK-OV-3

Row | SMILES | GI50 (MCF7) | GI50 (MDA-MB-435) | GI50 (NCI-H23) | GI50 (SF-268) | GI50 (SK-MEL-28) | GI50 (HL-60) | GI50 (SK-MEL-5) | GI50 (Malme-3M) | GI50 (A549) | GI50 (NCI-H522) | GI50 (SK-MEL-2) | GI50 (IGROV-1) | GI50 (ACHN) | GI50 (NCI/ADR-RES) | GI50 (UACC-257) | GI50 (SNB-19) | GI50 (HCC 2998) | GI50 (UACC-62) | GI50 (NCI-H460) | GI50 (SK-OV-3)
1 | CN(C)c1cccc(/C=C(\C#N)c2ccccc2)c1 | 0.218 µM (active) | 0.0478 µM (active) | 1.44 µM (inactive) | 8.77 µM (inactive) | 7.33 µM (inactive) | 0.0865 µM (active) | 0.371 µM (active) | 1.95 µM (inactive) | 2.61 µM (inactive) | 0.273 µM (active) | 0.316 µM (active) | 1.11 µM (active) | 14.4 µM (inactive) | 0.257 µM (active) | 1.01 µM (active) | 1.72 µM (inactive) | 0.565 µM (active) | 0.792 µM (active) | 0.527 µM (active) | 1.11 µM (active)
2 | CC(=O)[C@H]1CC[C@@H]2[C@]1(C)CC=C1[C@]23C=C[C@]2(C[C@@H](O)CC[C@]12C)C(C(=O)O)C3C(=O)O (stereo not given in full) | > 100 µM (inactive) | > 100 µM (inactive) | > 100 µM (inactive) | > 100 µM (inactive) | > 100 µM (inactive) | > 100 µM (inactive) | > 100 µM (inactive) | > 100 µM (inactive) | > 100 µM (inactive) | > 100 µM (inactive) | > 100 µM (inactive) | > 100 µM (inactive) | > 100 µM (inactive) | > 100 µM (inactive) | > 100 µM (inactive) | > 100 µM (inactive) | > 100 µM (inactive) | > 100 µM (inactive) | > 100 µM (inactive) | > 100 µM (inactive)
3 | Oc1ccc(C(=C(Br)c2ccccc2)c2ccc(O)cc2)cc1 | 3.13 µM (inactive) | 1.52 µM (inactive) | 10.4 µM (inactive) | 4.9 µM (inactive) | 10.4 µM (inactive) | 3.39 µM (inactive) | 3.47 µM (inactive) | 5.52 µM (inactive) | 4.4 µM (inactive) | 4.47 µM (inactive) | 5.74 µM (inactive) | 4.45 µM (inactive) | 9.16 µM (inactive) | 3.32 µM (inactive) | 12.6 µM (inactive) | 5.15 µM (inactive) | 8.65 µM (inactive) | 8.47 µM (inactive) | 11.1 µM (inactive) | 5.01 µM (inactive)
4 | CCC1(O)CC(O)c2c(O)c3c(c(O)c2C1C(=O)OC)C(=O)c1cccc(O)c1C3=O (stereo not given) | 3.28 µM (inactive) | 5.45 µM (inactive) | 3.29 µM (inactive) | 2.44 µM (inactive) | 11.4 µM (inactive) | 0.794 µM (active) | 1.84 µM (inactive) | 1.94 µM (inactive) | 3.64 µM (inactive) | 1.75 µM (inactive) | 3.12 µM (inactive) | 1.39 µM (inactive) | 3 µM (inactive) | 0.656 µM (active) | 3.65 µM (inactive) | 2.45 µM (inactive) | 4.43 µM (inactive) | 3 µM (inactive) | 1.7 µM (inactive) | 4.49 µM (inactive)

— ChEMBL document CHEMBL1201862, “PubChem BioAssay data set” (2004)
